Structures are written as SMILES.

Results on 2 compounds are retold here after patent US12564631B2, “Phytosphingosine derivatives as adjuvants in immune stimulation” (Helmholtz-Zentrum für Infektionsforschung GmbH, priority 2020, dated 2026).

For data set [1], the system named is Antigen-specific multifunctional CD4+ T cells. Kind of data set: Antigen-specific multifunctional T cells (intracellular cytokine staining, flow cytometry) in spleen cells of immunized mice. The format is in vivo, BALB/c mice. To be noted: adjuvanted Ovalbumin, CD4+ and CD8+ T cell populations. The protocol: FIG. 8: Antigen-specific multifunctional CD4+ T cells. (A) Groups of 3 BALB/c mice were immunized intramuscularly with PBS (control) or with three doses (14 days apart) of Ovalbumin (30 μg), alone or adjuvanted with c-di-AMP or aßGalCerMPEG or IPB 2033-2044 (15 μg). At 14 days after the second immunization, spleen cells were harvested, restimulated with Ovalbumin, intracellularly stained for double positive Th cytokines (IFN-γ, IL-2, TNF-α, IL-4 and IL-17), and analyzed by flow cytometry. […] At 14 days after the second immunization, spleen cells were harvested, restimulated with Ovalbumin, intracellularly stained for triple positive Th cytokines (IFN-γ, IL-2, TNF-α, IL-4 and IL-17), and analyzed by flow cytometry.
In order to characterize more accurately the cellular immune response, the production of intracellular cytokines was measured in CD4+ and CD8+ T cells. […]
Therefore, mice were immunized to assess the in vivo performance of CDA in an active vaccination setting. To assess vaccination effectivity, the frequencies of cytokine producers among the CD4+ and CD8+ T cell populations were evaluated by intracellular cytokine staining and flow cytometry. […] Thus, the frequency of T cells producing single cytokines or combinations (positive events/million) was analyzed by flow cytometry.
In general terms: Flow cytometry measures light scatter and fluorescence of single cells or particles in a stream.

For data set [2] the following is noted: Ebensen et al J. Immunol. 179 (2007) 2065; cited from earlier work.

In the case of `Nc1ncnc2c1ncn2[C@@H]1O[C@@H]2COP(=O)(O)O[C@H]3[C@@H](O)[C@H](n4cnc5c(N)ncnc54)O[C@@H]3COP(=O)(O)O[C@H]2[C@H]1O` [CDA, c-di-AMP], the “frequency of triple, double and single cytokine producers among T cells” value in data set [1] is “increased the frequency of triple, double and single cytokine producers”.
For `CCCCCCCCCCCCCCCCCCCCCCCCCC(=O)N[C@@H](CO[C@H]1O[C@H](CO)[C@H](O)[C@H](O)[C@H]1O)[C@H](O)[C@H](O)CCCCCCCCCCCCCC` [KRN7000], the solubility entry in data set [2] is given as “low solubility”.
